According to patent US20260250290A1 (BRISTOL-MYERS SQUIBB COMPANY, priority 2023, published 2026):
Where a name gives a salt, the structure may show the parent alone.

Biological target: T1, full length SGK1 (Homo sapiens, UniProt O00141)
T1 construct: 125 μM full length SGK1 (Life Technologies Part #PR7358A); purchased Life Technologies PR7358A
T1 sequence (O00141 1-431): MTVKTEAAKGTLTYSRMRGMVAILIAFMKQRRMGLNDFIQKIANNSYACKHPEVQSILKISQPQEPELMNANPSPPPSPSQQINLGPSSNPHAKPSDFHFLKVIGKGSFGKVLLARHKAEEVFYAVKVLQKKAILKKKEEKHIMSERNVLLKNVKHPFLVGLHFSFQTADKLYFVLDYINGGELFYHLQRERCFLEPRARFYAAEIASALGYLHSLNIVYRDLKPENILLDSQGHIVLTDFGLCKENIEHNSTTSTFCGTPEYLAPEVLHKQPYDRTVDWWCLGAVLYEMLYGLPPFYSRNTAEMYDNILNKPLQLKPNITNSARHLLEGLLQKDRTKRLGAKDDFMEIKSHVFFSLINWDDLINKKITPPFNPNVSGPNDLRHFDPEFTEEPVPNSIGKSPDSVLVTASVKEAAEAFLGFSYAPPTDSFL
Experiment: SGK1 inhibition Assay A (Caliper LabChip electrophoretic separation of fluorescent peptide substrate and phosphorylated product)
Format: biochemical
Details: Assay A; 20 μM ATP, 40 min incubation; read-out: SGK1 IC50

SMILES | IC50
CC(=O)N1CC=C(c2cc(N3CCC[C@@H](NC(=O)c4cccc(N5CC[C@@H](O)C5)n4)C3)c3c(N)ncnn23)C1 [Example 770, N-((R)-1-(7-(1-acetyl-2,5-dihydro-1H-pyrrol-3-yl)-4-aminopyrrolo[2,1-f][1,2,4]triazin-5-yl)piperidin-3-yl)-6-((R)-3-hydroxypyrrolidin-1-yl)picolinamide] | 7 nM
CC(=O)N1CC=C(c2cc(N3CCC[C@@H](NC(=O)c4cccc(N5CC(C)(O)C5)n4)C3)c3c(N)ncnn23)C1 [Example 771, (R)-N-(1-(7-(1-acetyl-2,5-dihydro-1H-pyrrol-3-yl)-4-aminopyrrolo[2,1-f][1,2,4]triazin-5-yl)piperidin-3-yl)-6-(3-hydroxy-3-methylazetidin-1-yl)picolinamide] | 17 nM
CC(=O)N1CC=C(c2cc(N3CCC[C@@H](NC(=O)c4cccc(N5CCC(C)(O)CC5)n4)C3)c3c(N)ncnn23)C1 [Example 772, (R)-N-(1-(7-(1-acetyl-2,5-dihydro-1H-pyrrol-3-yl)-4-aminopyrrolo[2,1-f][1,2,4]triazin-5-yl)piperidin-3-yl)-6-(4-hydroxy-4-methylpiperidin-1-yl)picolinamide] | 72 nM
CC(=O)N1CC=C(c2cc(N3CCC[C@@H](NC(=O)c4cccc(N5CC(=O)NC(C)C5)n4)C3)c3c(N)ncnn23)C1 (stereo partly drawn) [Example 775, N-((R)-1-(7-(1-acetyl-2,5-dihydro-1H-pyrrol-3-yl)-4-aminopyrrolo[2,1-f][1,2,4]triazin-5-yl)piperidin-3-yl)-6-(3-methyl-5-oxopiperazin-1-yl)picolinamide, 2 TFA] | 9 nM
CC(=O)N1CC=C(c2cc(N3CCC[C@@H](NC(=O)c4cccc(N5CCNC(C(F)(F)F)C5)n4)C3)c3c(N)ncnn23)C1 (stereo partly drawn) [Example 776, N-((R)-1-(7-(1-acetyl-2,5-dihydro-1H-pyrrol-3-yl)-4-aminopyrrolo[2,1-f][1,2,4]triazin-5-yl)piperidin-3-yl)-6-(3-(trifluoromethyl)piperazin-1-yl)picolinamide] | 5 nM
CC(=O)N1CC=C(c2cc(N3CCC[C@@H](NC(=O)c4cccc(N5CCN(C)C(C)C5)n4)C3)c3c(N)ncnn23)C1 (stereo partly drawn) [Example 777, N-((R)-1-(7-(1-acetyl-2,5-dihydro-1H-pyrrol-3-yl)-4-aminopyrrolo[2,1-f][1,2,4]triazin-5-yl)piperidin-3-yl)-6-(3,4-dimethylpiperazin-1-yl)picolinamide] | 44 nM
CNc1cccc(C(=O)N[C@@H]2CCCN(c3cc(C4=CCN(C(C)=O)C4)n4ncnc(N)c34)C2)n1 [Example 778, (R)-N-(1-(7-(1-acetyl-2,5-dihydro-1H-pyrrol-3-yl)-4-aminopyrrolo[2,1-f][1,2,4]triazin-5-yl)piperidin-3-yl)-6-(methylamino)picolinamide] | 21 nM

Molecules with a lower IC50, results first:

IC50 | SMILES
2 nM | CC(=O)N1CC=C(c2cc(N3CCC[C@@H](NC(=O)c4cccc(N5CCN6CCCC6C5)n4)C3)c3c(N)ncnn23)C1 (stereo partly drawn) [Example 769, N-((R)-1-(7-(1-acetyl-2,5-dihydro-1H-pyrrol-3-yl)-4-aminopyrrolo[2,1-f][1,2,4]triazin-5-yl)piperidin-3-yl)-6-(hexahydropyrrolo[1,2-a]pyrazin-2(1H)-yl)picolinamide]
1 nM | CC(=O)N1CC=C(c2cc(N3CCC[C@@H](NC(=O)c4cccc(N5CCNC(C)(C)C5)n4)C3)c3c(N)ncnn23)C1 [Example 773, (R)-N-(1-(7-(1-acetyl-2,5-dihydro-1H-pyrrol-3-yl)-4-aminopyrrolo[2,1-f][1,2,4]triazin-5-yl)piperidin-3-yl)-6-(3,3-dimethylpiperazin-1-yl)picolinamide]
1 nM | CC(=O)N1CC=C(c2cc(N3CCC[C@@H](NC(=O)c4cccc(N5C[C@@H](C)N[C@@H](C)C5)n4)C3)c3c(N)ncnn23)C1 [Example 774, N-((R)-1-(7-(1-acetyl-2,5-dihydro-1H-pyrrol-3-yl)-4-aminopyrrolo[2,1-f][1,2,4]triazin-5-yl)piperidin-3-yl)-6-((3S,5R)-3,5-dimethylpiperazin-1-yl)picolinamide]
